Source: PubChem BioAssay (NCI)
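Step 1: Grow cells in 96-well plates. Step 2: Expose to compound for 48 hours at 5 concentrations. Step 3: Interpolate endpoints linearly; if unreached, use highest concentration. Here, GI50 denotes the concentration required for 50% inhibition of growth. TGI denotes the concentration required for complete inhibition of growth.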

How the values were obtained:
Assay in all cases: inhibition of tumour cell growth, NCI panel, 48 h
A498 renal = test system: A498 renal
IGROV1 ovarian = test system: IGROV1 ovarian
MCF7 breast = test system: MCF7 breast
MDA-MB-435 = test system: MDA-MB-435
NCI-H23 lung = test system: NCI-H23 lung
OVCAR-4 ovarian = test system: OVCAR-4 ovarian
OVCAR-8 ovarian = test system: OVCAR-8 ovarian
PC-3 prostate = test system: PC-3 prostate

SMILES | GI50 (A498 renal) [µM] | TGI (A498 renal) [µM] | GI50 (IGROV1 ovarian) [µM] | TGI (IGROV1 ovarian) [µM] | GI50 (MCF7 breast) [µM] | TGI (MCF7 breast) [µM] | GI50 (MDA-MB-435) [µM] | TGI (MDA-MB-435) [µM] | GI50 (NCI-H23 lung) [µM] | TGI (NCI-H23 lung) [µM] | GI50 (OVCAR-4 ovarian) [µM] | TGI (OVCAR-4 ovarian) [µM] | GI50 (OVCAR-8 ovarian) [µM] | TGI (OVCAR-8 ovarian) [µM] | GI50 (PC-3 prostate) [µM] | TGI (PC-3 prostate) [µM]
C=C(C)[C@@H]1CC[C@]2(C(=O)O)CC[C@]3(C)[C@H](CC[C@@H]4[C@@]5(C)C/C(=C/c6ccc(OC)cc6)C(=O)C(C)(C)[C@@H]5CC[C@]43C)[C@@H]12 | 2.28 | 8.47 | 2.15 | 7.3 | 2.59 | 7.74 | 1.84 | 4.02 | 2.44 | 8.25 | 2.5 | 11.2 | 3.16 | 33.1 | 1.74 | 8.24
CS(=O)(=O)c1ccc(Oc2cc(F)cc(C#N)c2)c2c1[C@H](O)C(F)(F)C2 | > 100 | > 100 | > 100 | > 100 | > 100 | > 100 | > 100 | > 100 | > 100 | > 100 | > 100 | > 100 | > 100 | > 100 | > 100 | > 100
CCC(c1ccc2cc(O)ccc2c1)C(C)(C)C(=O)O (stereo not drawn) |  | > 100 |  | > 100 |  | > 100 |  | > 100 |  | > 100 |  | > 100 |  | > 100 |  | > 100
S=C(c1ccc2c(c1)OCO2)N1CCN(c2cccc(Cl)c2)CC1 | 0.424 | 12.8 | 3.88 | > 100 | 0.471 | > 100 | 0.182 | 0.607 | 2.7 | > 100 | 7.45 | > 100 | 0.975 | 7.21 | 4.08 | > 100
COc1cc(-n2cnc(-c3ccc(Cl)cc3)c2)cc(OC)c1OC | 14.2 | 31.6 | 30.7 | > 100 | 17.9 | 34.7 | 38.4 | > 100 | 17.9 | 35 | 15.8 | 46.6 | > 100 | > 100 | 12.7 | 31.7
O=C(NCCNc1nccc(-c2c(-c3ccc(F)cc3)nc3sccn23)n1)c1ccccc1 | 15.1 | > 100 | 3.48 | 24.1 | 1.43 | 17.3 | 2.69 | 14 | 10.9 | 45.1 | 15.1 | 71.7 | 5.95 | > 100 | 10.8 | 89.2
N#CCCSC(=S)C1CCCC1=N (stereo not drawn) |  | > 100 |  | > 100 |  | > 100 |  | > 100 |  | > 100 |  | > 100 |  | > 100 |  | > 100
CCOC(=O)c1c(Cl)c2c(n1Cc1cccc(OC)c1)-c1oncc1CC2 | 0.382 | 5.69 | 1.23 | 59 | 0.62 | > 100 | 0.298 | 15.6 | 3.55 | 60.6 | 6.46 | > 100 | 7.27 | > 100 | 5.4 | > 100
Cc1cc(=O)oc2c(OS(C)(=O)=O)c(OS(C)(=O)=O)ccc12 |  | > 100 |  | > 100 |  | > 100 |  | > 100 |  | > 100 |  | > 100 |  | > 100 |  | > 100
N#Cc1c(N)nc(NCc2ccccc2)c(C#N)c1-c1ccccc1Cl | 19.2 | 46.9 | 5.08 | 41.1 | 20 | > 100 | 21.8 | > 100 | 17.5 | > 100 | 5.04 | 45.3 | 11.4 | > 100 | 12 | > 100
O=C(Nc1ccc(OCc2nnc(-c3ccccc3)o2)c(F)c1)Nc1ccc(Cl)c(C(F)(F)F)c1 | 1.61 | 4.25 | 2.12 | 5.23 | 2.29 | 8.93 | 2.71 | > 100 | 2.37 | 8.09 | 2.49 | 8.52 | 2.57 | 11.5 | 1.3 | 4.85
COc1cccc(Cn2c(-c3nonc3NC(C)=O)nc3ccccc32)c1 | 0.426 | 6.53 | 7.98 | > 100 | 4.04 | > 100 | 0.642 | 5.48 | 6.42 | > 100 | 15.6 | > 100 | 6.3 | > 100 | 2.83 | > 100
